According to patent publication US8962694B2, “Composition for pest control” (priority 2006, dated 2015):
“And” between values parts separate entries of the source, which are not always exact repeats. Equal entries are not always repeated.

Tests used:
cane toads [1] = experiment: Trial 2 single spray application of test pesticidal compositions; assay type: in vivo, Bufo marinus
Text: The tests conducted in the second trial involved a single spray application of various test pesticidal compositions on cane toads. A hand-operated spray bottle was used to deliver a single standard dose of 3.0-3.3 gm of the particular test pesticidal agent to the dorsal surface of each animal. Animals were subsequently continuously monitored for their response to the treatment.

cane toads [2] = experiment: Trial 1 two-step test: ethanol anaesthesia, then pesticidal agent applied to dorsal surface; assay type: in vivo, Bufo marinus
Experimental: Testing of the efficacy of various compositions for the purpose of cane toad extermination was conducted in two trials. The first trial comprised a “two-step” test in which subject toads were initially exposed to an anaesthetic agent and, once anaesthetised, exposed to a pesticidal agent (i.e. killing agent) in the presence of a suitable carrier. This two-step approach was undertaken to ensure the humane extermination of the animals.
Subject animals were therefore exposed to an approximate total dose of 3-4 ml of materials, comprising 2-3 gm of an anaesthetising agent (i.e. ethanol) and up to 1.0 ml of the particular pesticidal agent to be tested. A mist of ethanol was applied (“primary treatment”) to the dorsal surface of the toad from a hand-held spray bottle. When the toad was stupefied, as judged by the inability of the animal to right itself onto its ventral surface when turned onto its back (generally 10-15 minutes after treatment), the test pesticidal agent was administered (“secondary treatment”) onto the animal's dorsal surface by means of a micropipette. The test pesticidal agent included chloroxylenol (i.e. 4-chloro 3,5-dimethyl phenol) in different carriers including ethanol, isopropanol, propanol and dilute solutions thereof. Animals were monitored continuously for their response to the treatment.

cane toads [3] = system: cane toads
[4] = large toads (≧140 gm), carrier 40% ethanol with 60% isopropanol, chloroxylenol content 3.75%
[5] = large toads (≧140 gm), carrier 40% ethanol with 60% isopropanol, chloroxylenol content 5.00%
[6] = large toads (≧140 gm), carrier 60% ethanol with 40% isopropanol, chloroxylenol content 5.00%
[7] = large toads (≧140 gm), carrier 70% ethanol with 30% isopropanol, chloroxylenol content 2.00%
[8] = large toads (≧140 gm), carrier 70% ethanol with 30% isopropanol, chloroxylenol content 2.50%
[9] = large toads (≧140 gm), carrier 80% ethanol with 20% isopropanol, chloroxylenol content 2.50%
[10] = large toads (≧140 gm), carrier 80% ethanol with 20% isopropanol, chloroxylenol content 3.75%
[11] = large toads (≧140 gm), carrier 80% ethanol with 20% isopropanol, chloroxylenol content 5.00%
[12] = medium size toads (90.0-139.9 gm), carrier 40% ethanol with 60% isopropanol, chloroxylenol content 3.75%
[13] = medium size toads (90.0-139.9 gm), carrier 40% ethanol with 60% isopropanol, chloroxylenol content 5.00%
[14] = medium size toads (90.0-139.9 gm), carrier 60% ethanol with 40% isopropanol, chloroxylenol content 5.00%
[15] = medium size toads (90.0-139.9 gm), carrier 70% ethanol with 30% isopropanol, chloroxylenol content 2.00%
[16] = medium size toads (90.0-139.9 gm), carrier 70% ethanol with 30% isopropanol, chloroxylenol content 2.50%
[17] = medium size toads (90.0-139.9 gm), carrier 80% ethanol with 20% isopropanol, chloroxylenol content 2.50%
[18] = medium size toads (90.0-139.9 gm), carrier 80% ethanol with 20% isopropanol, chloroxylenol content 3.75%
[19] = medium size toads (90.0-139.9 gm), carrier 80% ethanol with 20% isopropanol, chloroxylenol content 5.00%
[20] = pooled chloroxylenol concentrations and ethanol/propanol carriers (FIGS. 1 and 2)
[21] = small toads (45.0-89.9 gm), carrier 60% ethanol with 40% isopropanol, chloroxylenol content 2.50%
[22] = small toads (45.0-89.9 gm), carrier 60% ethanol with 40% isopropanol, chloroxylenol content 3.75%
[23] = small toads (45.0-89.9 gm), carrier 60% ethanol with 40% isopropanol, chloroxylenol content 5.00%
[24] = small toads (45.0-89.9 gm), carrier 70% ethanol in water, chloroxylenol content 2.50%
[25] = small toads (45.0-89.9 gm), carrier 70% ethanol with 30% isopropanol, chloroxylenol content 2.50%
[26] = small toads (45.0-89.9 gm), carrier 70% ethanol with 30% isopropanol, chloroxylenol content 3.75%
[27] = small toads (45.0-89.9 gm), carrier 70% ethanol with 30% isopropanol, chloroxylenol content 5.00%
[28] = small toads (45.0-89.9 gm), carrier 70% ethanol with 30% methanol, chloroxylenol content 2.50%
[29] = small toads (45.0-89.9 gm), carrier 80% ethanol with 20% isopropanol, chloroxylenol content 2.50%
[30] = small toads (45.0-89.9 gm), carrier 80% ethanol with 20% isopropanol, chloroxylenol content 3.75%
[31] = small toads (45.0-89.9 gm), carrier 80% ethanol with 20% isopropanol, chloroxylenol content 5.00%
[32] = small toads (45.0-89.9 gm), carrier 98% ethanol with 2% citral, chloroxylenol content 2.50%
[33] = small toads (45.0-89.9 gm), carrier 100% ethanol, chloroxylenol content 0.50%, spray 3.0-3.3 gm
[34] = small toads (45.0-89.9 gm), carrier 100% ethanol, chloroxylenol content 2.50%
[35] = small toads (45.0-89.9 gm), carrier 100% ethanol, chloroxylenol content 5.00%
[36] = primary 100% ethanol 2.1-2.9 ml, secondary 5% chloroxylenol in 40% isopropanol/60% water, 1.0 ml, medium toads (90.0-139.9 gm)
[37] = primary 100% ethanol 2.1-2.9 ml, secondary 5% chloroxylenol in 40% isopropanol/60% water, 1.0 ml, small toads (45.0-89.9 gm)
[38] = primary 100% ethanol 2.1-2.9 ml, secondary 30% chloroxylenol in ethanol, 0.2 ml, small toads (45.0-89.9 gm)
[39] = primary 100% ethanol 2.1-2.9 ml, secondary 30% chloroxylenol in ethanol, 0.5 ml, small toads (45.0-89.9 gm)
[40] = primary 100% ethanol 2.1 ml, secondary 15% chloroxylenol in 60% isopropanol/40% water, 1.0 ml, small toads (45.0-89.9 gm)

Cc1cc(O)cc(C)c1Cl [chloroxylenol, 4-chloro 3,5-dimethyl phenol] was tested, and the “predicted time to kill toads of up to 200 gm weight” value (cane toads [1]; 2.5% chloroxylenol, from fitted line of FIG. 2) was “less than 60 minutes”, the large toads killed/treated (cane toads [1]; compositions with 2.5% or more chloroxylenol) was 31/32 and the medium-sized toads killed (cane toads [1]; compositions with 2.5% or more chloroxylenol, all toads treated (33)) was 33. For the same compound, the “mean time to death” value (cane toads [1]; [4]) was 52 min, the number died/number tested (cane toads [1]; [4]) was 5/5 and the “mean time to death” value (cane toads [1]; [5]) was 47 min. The number died/number tested (cane toads [1]; [5]) was 4/4, the “mean time to death” value (cane toads [1]; [6]) was 39 min and the number died/number tested (cane toads [1]; [6]) was 7/7. For the same compound, the number died/number tested (cane toads [1]; large toads (≧140 gm), carrier 70% ethanol with 30% isopropanol, chloroxylenol content 1.25%) was 0/7;, the “mean time to death” value (cane toads [1]; [7]) was 50 min and the number died/number tested (cane toads [1]; [7]) was 7/7. For the same compound, the “mean time to death” value (cane toads [1]; [8]) was 60 min, the number died/number tested (cane toads [1]; [8]) was 7/7 and the “mean time to death” value (cane toads [1]; [9]) was 91 min. The number died/number tested (cane toads [1]; [9]) was 1/1, the “mean time to death” value (cane toads [1]; [10]) was 34 min and the number died/number tested (cane toads [1]; [10]) was 3/4. For the same compound, the “mean time to death” value (cane toads [1]; [11]) was 53 min, the number died/number tested (cane toads [1]; [11]) was 4/4 and the “mean time to death” value (cane toads [1]; [12]) was 48 min. For the same compound, the number died/number tested (cane toads [1]; [12]) was 4/4, the “mean time to death” value (cane toads [1]; [13]) was 46 min and the number died/number tested (cane toads [1]; [13]) was 4/4. The “mean time to death” value (cane toads [1]; [14]) was 28 min, the number died/number tested (cane toads [1]; [14]) was 7/7 and the “mean time to death” value (cane toads [1]; [15]) was 65 min. For the same compound, the number died/number tested (cane toads [1]; [15]) was 5/5, the “mean time to death” value (cane toads [1]; [16]) was 39 min and the number died/number tested (cane toads [1]; [16]) was 5/5. The “mean time to death” value (cane toads [1]; [17]) was 37 min, the number died/number tested (cane toads [1]; [17]) was 5/5 and the “mean time to death” value (cane toads [1]; [18]) was 31 min. For the same compound, the number died/number tested (cane toads [1]; [18]) was 4/4, the “mean time to death” value (cane toads [1]; [19]) was 52 min and the number died/number tested (cane toads [1]; [19]) was 4/4. The “tests in which a lethal outcome was achieved” value (cane toads [1]; of 93 in total, three chloroxylenol concentrations in four propanol-ethanol carriers) was 92, the “large toads died within 40 minutes (number)” value (cane toads [1]; [20]) was 12/32 and the “large toads died within 40 minutes (percent)” value (cane toads [1]; [20]) was 37%. For the same compound, the “large toads died within 60 minutes (number)” value (cane toads [1]; [20]) was 23/32, the “large toads died within 60 minutes (percent)” value (cane toads [1]; [20]) was 72% and the “medium toads died within 40 minutes (number)” value (cane toads [1]; [20]) was 25/33. The “medium toads died within 40 minutes (percent)” value (cane toads [1]; [20]) was 75%, the “medium toads died within 60 minutes (number)” value (cane toads [1]; [20]) was 30/33 and the “medium toads died within 60 minutes (percent)” value (cane toads [1]; [20]) was 91%. The “small toads killed in <30 minutes (number)” value (cane toads [1]; [20]) was 22/28, the “small toads killed in <30 minutes (percent)” value (cane toads [1]; [20]) was 78% and the “time to death, all medium sized toads” value (cane toads [1]; [20]) was at most 102 min. The “time to death, large toads, all but one” value (cane toads [1]; [20]) was at most 120 min, the “time to death, all small toads” value (cane toads [1]; pooled: 2.5%, 3.75%, 5% chloroxylenol in four ethanol/propanol carriers (FIGS. 1 and 2)) was at most 40 min and the “mean time to death” value (cane toads [1]; [21]) was 27 min. The number died/number tested (cane toads [1]; [21]) was 3/3, the “mean time to death” value (cane toads [1]; [22]) was 19 min and the number died/number tested (cane toads [1]; [22]) was 3/3. For the same compound, the “mean time to death” value (cane toads [1]; [23]) was 21 min, the number died/number tested (cane toads [1]; [23]) was 5/5 and the “mean time to death” value (cane toads [1]; [24]) was 46 min. For the same compound, the number died/number tested (cane toads [1]; [24]) was 3/3, the “mean time to death” value (cane toads [1]; [25]) was 26 min and the number died/number tested (cane toads [1]; [25]) was 3/3. The “mean time to death” value (cane toads [1]; [26]) was 26 min, the number died/number tested (cane toads [1]; [26]) was 3/3 and the “mean time to death” value (cane toads [1]; [27]) was 22 min. For the same compound, the number died/number tested (cane toads [1]; [27]) was 3/3, the “mean time to death” value (cane toads [1]; [28]) was 38 min and the number died/number tested (cane toads [1]; [28]) was 3/3. For the same compound, the “mean time to death” value (cane toads [1]; [29]) was 25 min, the number died/number tested (cane toads [1]; [29]) was 2/2 and the “mean time to death” value (cane toads [1]; [30]) was 22 min. For the same compound, the number died/number tested (cane toads [1]; [30]) was 4/4, the “mean time to death” value (cane toads [1]; [31]) was 16 min and the number died/number tested (cane toads [1]; [31]) was 2/2. The “mean time to death” value (cane toads [1]; [32]) was 25 min, the number died/number tested (cane toads [1]; [32]) was “all three toads tested were killed and 3/3” and the “mean time to death” value (cane toads [1]; [33]) was 62 min. For the same compound, the number died/number tested (cane toads [1]; [33]) was “one third and 1/3”, the “mean time to death” value (cane toads [1]; [34]) was 28 min and the number died/number tested (cane toads [1]; [34]) was 3/3. For the same compound, the “mean time to death” value (cane toads [1]; [35]) was 22 min, the number died/number tested (cane toads [1]; [35]) was 3/3 and the “mean times to death” value (cane toads [1]; small toads, ethanol as sole carrier or mixtures of ethanol and propanol, at least 2.5% chloroxylenol) was “less than 30 minutes”. The ethanol-anaesthetised toads exterminated (cane toads [2]; chloroxylenol in carriers (ethanol alone or dilutions of propanol), all toads treated (12)) was 12, the “mean time to death” value (cane toads [2]; [36]) was 28 min and the number died/number tested (cane toads [2]; [36]) was 1/1. For the same compound, the “mean time to death” value (cane toads [2]; [37]) was 30 min, the number died/number tested (cane toads [2]; [37]) was 5/5 and the “mean time to death” value (cane toads [2]; [38]) was 71 min. For the same compound, the number died/number tested (cane toads [2]; [38]) was 2/2, the “mean time to death” value (cane toads [2]; [39]) was 64 min and the number died/number tested (cane toads [2]; [39]) was 2/2. The “mean time to death” value (cane toads [2]; [40]) was 24 min, the number died/number tested (cane toads [2]; [40]) was 2/2 and the onset of death (cane toads [2]; two-step tests of Example 1) was 16 to 102 min.
CCO [ethanol] was tested, and the “anaesthetic effect of topical application” value (cane toads [3]; toads of all sizes) was “rapid- and long-acting anaesthetic”, the “lethality of ethanol alone” value (cane toads [3]; very small toads = less than about 45 gm) was “death only in some (but not all) very small toads” and the “lag period before onset of anaesthesia (toad stupefied, unable to right itself)” value (cane toads [2]; mist of ethanol on dorsal surface, 2-3 gm) was 10 to 15 min.
